“And” between values parts separate entries of the source, which are not always exact repeats. Equal values may be shown once. Read-outs that look alike come from different tables or passages of the source.
Assays:
rat CYP2C11 = target: T1, rat CYP2C11 (Rattus norvegicus, UniProt P08683); experiment: Inhibition of CYP450s in rat liver microsomes, probe mephenytoin; settings: RLMs; SZ-A 8.899 μg/mL, DNJ 20 μM, FA 5 μM, DAB 8 μM
T1 sequence (P08683 1-500): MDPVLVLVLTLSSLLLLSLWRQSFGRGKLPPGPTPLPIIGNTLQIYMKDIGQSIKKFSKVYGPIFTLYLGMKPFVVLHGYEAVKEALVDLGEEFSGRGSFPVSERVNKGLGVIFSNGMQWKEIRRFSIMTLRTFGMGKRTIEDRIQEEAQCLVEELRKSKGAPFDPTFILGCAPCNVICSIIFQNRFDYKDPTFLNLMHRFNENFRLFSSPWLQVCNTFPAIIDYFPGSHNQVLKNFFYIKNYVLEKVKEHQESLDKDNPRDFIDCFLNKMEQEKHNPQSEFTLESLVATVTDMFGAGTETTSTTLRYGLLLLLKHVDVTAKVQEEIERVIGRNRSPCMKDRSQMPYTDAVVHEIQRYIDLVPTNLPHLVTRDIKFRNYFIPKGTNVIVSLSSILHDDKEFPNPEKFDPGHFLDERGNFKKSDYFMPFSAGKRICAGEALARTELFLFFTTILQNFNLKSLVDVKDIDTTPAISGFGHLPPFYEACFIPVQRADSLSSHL

[1] = Identification of metabolites in HLMs/RLMs and rat plasma (Q-Extractive high-resolution MS); type: in vitro ADME, human; settings: HLMs/RLMs and rat plasma reaction system
Protocol: Furthermore, 5 μL of the supernatant was collected for LC-MS/MS analysis. The LC-MS/MS conditions were as follows: chromatographic column (XBridge™ Amide, 3.5 µm, 4.6 × 150 mm); mobile phase, water (0.1% ammonia) and acetonitrile, other conditions are the same as those in CYP450s inhibition study, with the following scan parameters: resolution, 70,000; AGC target, 3,000,000; maximum IT, 200 ms; and scan range, 50–600 m/z.

[2] = parameters: method as in Yang et al., 2017; settings: ref Yang et al., 2017, cited from earlier work; for form excreted: material conservation within 24 h after oral administration of SZ-A; for oral absolute bioavailability / pharmacokinetic profile versus dose: rats; for oral absolute bioavailability: after oral administration of SZ-A; for pharmacokinetic profile versus dose: oral SZ-A 20–500 mg/kg
[3] = Pharmacokinetic study: plasma levels after oral SZ-A in SD rats (LC-MS/MS, DAS 3.2.8); type: in vivo; settings: for Tmax / AUC(0-inf) / AUC(0-t) / Cmax / half-life / MRT last / MRT inf: both sexes, rat; for Tmax: SD, po; for Tmax / AUC(0-inf) / AUC(0-t) / Cmax / half-life / MRT last / MRT inf / CLz / VRT(0-t) / VRT(0-∞) / Vz: plasma; for AUC(0-inf) / AUC(0-t) / Cmax / half-life / CLz / VRT(0-t) / VRT(0-∞) / Vz: n=8; for MRT last: n=8, read-out: MRT(0-t); for MRT inf: n=8, read-out: MRT(0-∞)
Protocol: Twenty-four SD rats were fasted for 12 h (free access to water) and randomly classified into three groups (n = 8; half male and female) that received different doses of SZ-A solution (25, 50, and 200 mg/kg) via oral administration. After completion of dose administration, blood samples (0.3 mL) were collected through an indwelling catheter from the jugular vein at predetermined time points (5, 15, 30, and 45 min, 1, 2, 4, 8, and 24 h). The blood was centrifuged at 5,000 rpm for 10 min to separate the plasma. All plasma samples were stored frozen at −80°C until liquid chromatography coupled to tandem mass spectrometry (LC-MS/MS) analysis (AB SCIEX Triple Quad™ 4,500 mass spectrometer, Applied Biosystems Inc., United States).
Primary pharmacokinetic parameters, including Cmax, Tmax, area under the plasma concentration-time curve (AUC), t1/2, clearance rate, and the apparent volume of distribution, were calculated using DAS 3.2.8 (Bio Guider Co., Shanghai, China).

major CYP450s in HLMs = experiment: Effect on activity of the major CYP450s in human liver microsomes (all isoforms together); settings: final concentration SZ-A 8.899 μg/mL (equivalent to DNJ 20 μM), FA 5 μM, DAB 8 μM
[4] = test system: CYP450s in RLMs (other isoenzymes); experiment: Effect on activity of rat liver microsome isoenzymes other than CYP2C11; settings: SZ-A 8.899 μg/mL, DNJ 20 μM, FA 5 μM, DAB 8 μM
[5] = Tissue distribution after single oral SZ-A (20 mg/kg) in ICR mice; type: in vivo
Protocol: Twenty SD rats were randomly classified into four groups corresponding to four-time points (5 and 30 min, 4 and 12 h) (n = 20; 5 animals per time point) that received SZ-A solution (40 mg/kg) via oral administration. After the completion of dose administration, plasma and tissue samples (derived from the heart, liver, spleen, lung, kidney, aortic blood vessels, brown adipose tissue, subcutaneous adipose tissue, abdominal adipose tissue, muscle (thigh skeletal muscle), pancreas, and brain) were collected at predetermined time points. Twenty-eight ICR mice were randomly classified into four groups (n = 7 per group) corresponding to four-time points (5 and 30 min, 4 and 12 h) that received SZ-A solution (20 mg/kg) via oral administration. After the completion of dose administration, tissue samples (derived from the heart, liver, spleen, lung, kidney, aortic blood vessels, brown adipose tissue, abdominal adipose tissue, muscle (thigh skeletal muscle), pancreas, and brain) were collected at predetermined time points.
Collected tissue samples were washed with normal saline. The surface moisture was removed by blotting gently with filter paper, and the weight was recorded. After adding an appropriate amount of normal saline, these tissue samples were ground into homogenates using a cryogenic grinder (JX-CL, Shanghai Jingxin, Shanghai, China). The obtained homogenates were stored at −80°C until LC-MS/MS analysis.

[6] = 25 mg/kg, oral SZ-A 25 mg/kg, n=8, read-out: Tmax
[7] = 50 mg/kg, oral SZ-A 50 mg/kg, n=8, read-out: Tmax
[8] = 200 mg/kg, oral SZ-A 200 mg/kg, n=8, read-out: Tmax
[9] = 200 mg/kg, oral SZ-A 25, 50 and 200 mg/kg, read-out: time to maximum plasma concentration (Tmax), all dose groups

For OC[C@H]1NC[C@@H](O)[C@@H]1O [DAB, 1,4-dideoxy-1,4-imino-D-arabinitol], the “effect on rat CYP2C11” value (rat CYP2C11) is given as “mild activation effect”, the metabolites found [1] is given as “no detectable phase I and phase II metabolites” and the form excreted [2] is given as “mainly excreted in their original forms”. For the same molecule, the oral absolute bioavailability [2] was 78.23% and > 70%, the “pharmacokinetic profile versus dose” value [2] was “non-linear pharmacokinetics” and the Tmax [3, 6] was 0.31 ± 0.12 h. For the same molecule, the Tmax [3, 7] was 0.44 ± 0.35 h, the Tmax [3, 8] was 0.75 ± 0.3 h and the Tmax [3, 9] was no more than 0.88 h. The AUC(0-inf) ([3]; oral SZ-A 25 mg/kg) was 1360 ± 299 ng·h/mL, the AUC(0-t) ([3]; oral SZ-A 25 mg/kg) was 1360 ± 299 ng·h/mL and the Cmax ([3]; oral SZ-A 25 mg/kg) was 1050 ± 141 ng/mL. The half-life ([3]; oral SZ-A 25 mg/kg) was 1.16 ± 0.31 h, the MRT last ([3]; oral SZ-A 25 mg/kg) was 1.26 ± 0.17 h and the MRT inf ([3]; oral SZ-A 25 mg/kg) was 1.26 ± 0.17 h. The AUC(0-inf) ([3]; oral SZ-A 50 mg/kg) was 2660 ± 367 ng·h/mL, the AUC(0-t) ([3]; oral SZ-A 50 mg/kg) was 2660 ± 367 ng·h/mL and the Cmax ([3]; oral SZ-A 50 mg/kg) was 1770 ± 632 ng/mL. For the same molecule, the half-life ([3]; oral SZ-A 50 mg/kg) was 1.2 ± 0.03 h, the MRT last ([3]; oral SZ-A 50 mg/kg) was 1.45 ± 0.56 h and the MRT inf ([3]; oral SZ-A 50 mg/kg) was 1.45 ± 0.56 h. For the same molecule, the AUC(0-inf) ([3]; oral SZ-A 200 mg/kg) was 7630 ± 2040 ng·h/mL, the AUC(0-t) ([3]; oral SZ-A 200 mg/kg) was 7630 ± 2040 ng·h/mL and the Cmax ([3]; oral SZ-A 200 mg/kg) was 3640 ± 1370 ng/mL. For the same molecule, the half-life ([3]; oral SZ-A 200 mg/kg) was 1.08 ± 0.04 h, the MRT last ([3]; oral SZ-A 200 mg/kg) was 1.6 ± 0.26 h and the MRT inf ([3]; oral SZ-A 200 mg/kg) was 1.6 ± 0.26 h. For the same molecule, the CLz ([3]; oral SZ-A 25 mg/kg) was 45.3 ± 11 mL/min/kg, the “VRT(0-t)” value ([3]; oral SZ-A 25 mg/kg) was 1.25±0.51 h^2 and the “VRT(0-∞)” value ([3]; oral SZ-A 25 mg/kg) was 1.25±0.51 h^2. The Vz ([3]; oral SZ-A 25 mg/kg) was 4.47 ± 1.53 L/kg, the CLz ([3]; oral SZ-A 50 mg/kg) was 45.2 ± 6.17 mL/min/kg and the “VRT(0-t)” value ([3]; oral SZ-A 50 mg/kg) was 1.83±2.07 h^2. The “VRT(0-∞)” value ([3]; oral SZ-A 50 mg/kg) was 1.83±2.07 h^2, the Vz ([3]; oral SZ-A 50 mg/kg) was 4.70 ± 0.65 L/kg and the CLz ([3]; oral SZ-A 200 mg/kg) was 65.7 ± 16.7 mL/min/kg. The “VRT(0-t)” value ([3]; oral SZ-A 200 mg/kg) was 1.92±0.81 h^2, the “VRT(0-∞)” value ([3]; oral SZ-A 200 mg/kg) was 1.92±0.81 h^2 and the Vz ([3]; oral SZ-A 200 mg/kg) was 6.20 ± 1.82 L/kg. The “effect on the major CYP450s in HLMs, either inhibition or activation” value (major CYP450s in HLMs) was “no significant effect”, the “effect on other isoenzymes in RLMs” value [4] was “no obvious effect” and the “distribution in aortic vessels compared with other tissues” value [5] was “lower than that in other tissues”. The “tissues with the highest concentrations” value [5] was “kidney, followed by the liver”.
In the case of OC[C@H]1NC[C@H](O)[C@@H](O)[C@@H]1O [DNJ, 1-deoxynojirimycin], the “effect on rat CYP2C11” value (rat CYP2C11) is listed as “mild activation effect”, the metabolites found [1] is listed as “no detectable phase I and phase II metabolites” and the form excreted [2] is listed as “mainly excreted in their original forms”. For the same molecule, the oral absolute bioavailability [2] was 72.41% and > 70%, the “pharmacokinetic profile versus dose” value [2] was “non-linear pharmacokinetics” and the Tmax [3, 6] was 0.41 ± 0.23 h. For the same molecule, the Tmax [3, 7] was 0.63 ± 0.33 h, the Tmax [3, 8] was 0.78 ± 0.25 h and the Tmax [3, 9] was no more than 0.88 h. For the same molecule, the AUC(0-inf) ([3]; oral SZ-A 25 mg/kg) was 7160 ± 1650 ng·h/mL, the AUC(0-t) ([3]; oral SZ-A 25 mg/kg) was 7160 ± 1650 ng·h/mL and the Cmax ([3]; oral SZ-A 25 mg/kg) was 4950 ± 978 ng/mL. For the same molecule, the half-life ([3]; oral SZ-A 25 mg/kg) was 1.02 ± 0.27 h, the MRT last ([3]; oral SZ-A 25 mg/kg) was 1.27 ± 0.2 h and the MRT inf ([3]; oral SZ-A 25 mg/kg) was 1.27 ± 0.2 h. For the same molecule, the AUC(0-inf) ([3]; oral SZ-A 50 mg/kg) was 12600 ± 3470 ng·h/mL, the AUC(0-t) ([3]; oral SZ-A 50 mg/kg) was 12600 ± 3470 ng·h/mL and the Cmax ([3]; oral SZ-A 50 mg/kg) was 7080 ± 1640 ng/mL. For the same molecule, the half-life ([3]; oral SZ-A 50 mg/kg) was 1.07 ± 0.04 h, the MRT last ([3]; oral SZ-A 50 mg/kg) was 1.51 ± 0.42 h and the MRT inf ([3]; oral SZ-A 50 mg/kg) was 1.51 ± 0.42 h. It also gave an AUC(0-inf) ([3]; oral SZ-A 200 mg/kg) of 38500 ± 18000 ng·h/mL, an AUC(0-t) ([3]; oral SZ-A 200 mg/kg) of 38300 ± 18000 ng·h/mL and a Cmax ([3]; oral SZ-A 200 mg/kg) of 19400 ± 10800 ng/mL. For the same molecule, the half-life ([3]; oral SZ-A 200 mg/kg) was 3.25 ± 4.2 h, the MRT last ([3]; oral SZ-A 200 mg/kg) was 1.79 ± 0.3 h and the MRT inf ([3]; oral SZ-A 200 mg/kg) was 2.02 ± 0.59 h. The “differences in t1/2 and CLz between the three doses” value ([3]; oral SZ-A 25, 50, 200 mg/kg) was “no significant differences”, the CLz ([3]; oral SZ-A 25 mg/kg) was 41.7 ± 11.2 mL/min/kg and the “VRT(0-t)” value ([3]; oral SZ-A 25 mg/kg) was 1.15±0.57 h^2. For the same molecule, the “VRT(0-∞)” value ([3]; oral SZ-A 25 mg/kg) was 1.15±0.57 h^2, the Vz ([3]; oral SZ-A 25 mg/kg) was 3.65 ± 1.45 L/kg and the CLz ([3]; oral SZ-A 50 mg/kg) was 48 ± 12.7 mL/min/kg. The “VRT(0-t)” value ([3]; oral SZ-A 50 mg/kg) was 2.02±1.71 h^2, the “VRT(0-∞)” value ([3]; oral SZ-A 50 mg/kg) was 2.02±1.71 h^2 and the Vz ([3]; oral SZ-A 50 mg/kg) was 4.47 ± 1.30 L/kg. For the same molecule, the CLz ([3]; oral SZ-A 200 mg/kg) was 74.5 ± 44.2 mL/min/kg, the “VRT(0-t)” value ([3]; oral SZ-A 200 mg/kg) was 6.42±4.65 h^2 and the “VRT(0-∞)” value ([3]; oral SZ-A 200 mg/kg) was 16.10±21.66 h^2. For the same molecule, the Vz ([3]; oral SZ-A 200 mg/kg) was 17.77 ± 20.83 L/kg, the “effect on the major CYP450s in HLMs, either inhibition or activation” value (major CYP450s in HLMs) was “no significant effect” and the “effect on other isoenzymes in RLMs” value [4] was “no obvious effect”. The “distribution in aortic vessels compared with other tissues” value [5] was “lower than that in other tissues” and the “tissues with the highest concentrations” value [5] was “kidney, followed by the liver”.

Source: publication PMC9981942, “Pharmacokinetics and tissue distribution of Ramulus Mori (Sangzhi) alkaloids in rats and its effects on liver enzyme activity” (Frontiers in Pharmacology, 2023)
